Assay results: patent US10544143B2, “4-azaindole compounds” (BRISTOL-MYERS SQUIBB COMPANY, priority 2017, dated 2020)
Where two headings read alike, the source gives them in different places.

Key:
[1] = biological target: human TLR9 (Homo sapiens (Human), UniProt Q9NR96); assay: TLR9 inhibition reporter assay (HEK-Blue SEAP); conditions: read-out: TLR9 IC50;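 note: SEAP driven by an IFN-β minimal promoter with NF-κB and AP-1 sites, read after 22 h, compounds dosed 0.05 nM–50 µM, inhibition scaled between agonist plus DMSO and reference-inhibitor wells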
Chain of human TLR9 (Q9NR96 26-1032): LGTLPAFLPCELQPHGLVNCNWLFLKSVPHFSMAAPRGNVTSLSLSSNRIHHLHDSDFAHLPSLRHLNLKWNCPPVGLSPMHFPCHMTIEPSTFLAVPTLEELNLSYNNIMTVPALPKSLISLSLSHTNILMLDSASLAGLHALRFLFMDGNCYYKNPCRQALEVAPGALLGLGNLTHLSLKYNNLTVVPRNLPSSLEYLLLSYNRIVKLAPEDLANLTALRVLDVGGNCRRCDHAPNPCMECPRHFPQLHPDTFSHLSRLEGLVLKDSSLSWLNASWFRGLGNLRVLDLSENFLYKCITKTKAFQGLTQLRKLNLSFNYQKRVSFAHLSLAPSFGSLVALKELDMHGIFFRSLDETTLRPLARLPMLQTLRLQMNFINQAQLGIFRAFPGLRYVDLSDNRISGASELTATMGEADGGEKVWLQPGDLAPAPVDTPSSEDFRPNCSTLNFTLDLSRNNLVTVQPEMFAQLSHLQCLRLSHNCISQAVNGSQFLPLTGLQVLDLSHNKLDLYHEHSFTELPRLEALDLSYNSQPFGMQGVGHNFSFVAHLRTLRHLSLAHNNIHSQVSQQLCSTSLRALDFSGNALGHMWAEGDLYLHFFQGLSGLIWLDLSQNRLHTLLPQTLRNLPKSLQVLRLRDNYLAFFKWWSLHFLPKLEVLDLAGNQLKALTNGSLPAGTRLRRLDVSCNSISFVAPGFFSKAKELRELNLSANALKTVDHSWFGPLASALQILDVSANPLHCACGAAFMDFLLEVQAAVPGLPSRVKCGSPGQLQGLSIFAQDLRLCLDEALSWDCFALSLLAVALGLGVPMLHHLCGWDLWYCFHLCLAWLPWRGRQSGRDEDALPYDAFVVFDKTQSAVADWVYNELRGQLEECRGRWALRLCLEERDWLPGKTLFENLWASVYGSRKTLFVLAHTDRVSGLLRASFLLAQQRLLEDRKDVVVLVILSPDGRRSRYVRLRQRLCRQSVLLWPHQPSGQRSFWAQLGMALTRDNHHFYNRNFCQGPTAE

[2] = biological target: human TLR8 (Homo sapiens (Human), UniProt Q9NR97); assay: TLR8 inhibition reporter assay (HEK-Blue SEAP); conditions: read-out: TLR8 IC50;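 note: SEAP driven by IFN-β minimal promoter carrying NF-κB and AP-1 sites, compounds dosed 0.05 nM to 50 µM for 22 h, inhibition scaled between agonist-plus-DMSO and reference-inhibitor wells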
Chain of human TLR8 (Q9NR97 27-1041): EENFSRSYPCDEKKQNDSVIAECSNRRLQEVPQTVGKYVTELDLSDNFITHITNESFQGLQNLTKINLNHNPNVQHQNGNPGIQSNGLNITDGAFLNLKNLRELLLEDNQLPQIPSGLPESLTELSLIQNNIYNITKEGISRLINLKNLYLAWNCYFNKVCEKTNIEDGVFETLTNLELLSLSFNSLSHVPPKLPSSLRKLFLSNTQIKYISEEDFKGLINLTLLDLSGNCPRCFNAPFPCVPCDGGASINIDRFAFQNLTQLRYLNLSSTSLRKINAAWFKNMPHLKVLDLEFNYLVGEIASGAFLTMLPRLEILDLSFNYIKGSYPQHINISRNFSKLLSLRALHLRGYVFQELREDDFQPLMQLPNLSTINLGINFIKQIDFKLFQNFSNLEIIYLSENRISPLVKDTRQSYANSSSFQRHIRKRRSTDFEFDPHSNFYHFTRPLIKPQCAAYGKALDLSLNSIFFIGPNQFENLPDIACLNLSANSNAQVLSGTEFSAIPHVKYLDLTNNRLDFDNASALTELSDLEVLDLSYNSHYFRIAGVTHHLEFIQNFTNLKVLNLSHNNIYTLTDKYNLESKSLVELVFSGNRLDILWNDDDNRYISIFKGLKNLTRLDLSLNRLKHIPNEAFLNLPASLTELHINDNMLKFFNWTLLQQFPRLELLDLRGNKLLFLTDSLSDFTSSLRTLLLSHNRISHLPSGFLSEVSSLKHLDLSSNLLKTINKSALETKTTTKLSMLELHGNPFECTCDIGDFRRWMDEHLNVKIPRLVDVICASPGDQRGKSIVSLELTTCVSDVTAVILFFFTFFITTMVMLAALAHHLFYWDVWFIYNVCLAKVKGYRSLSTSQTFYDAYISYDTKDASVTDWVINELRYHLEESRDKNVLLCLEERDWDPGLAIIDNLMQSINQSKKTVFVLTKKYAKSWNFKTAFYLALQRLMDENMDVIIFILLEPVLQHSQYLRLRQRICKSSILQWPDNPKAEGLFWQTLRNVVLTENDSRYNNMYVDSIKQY

[3] = biological target: human TLR7 (Homo sapiens (Human), UniProt Q9NYK1); assay: TLR7 inhibition reporter assay (HEK-Blue SEAP); assay type: cell-based
Chain of human TLR7 (Q9NYK1 27-1049): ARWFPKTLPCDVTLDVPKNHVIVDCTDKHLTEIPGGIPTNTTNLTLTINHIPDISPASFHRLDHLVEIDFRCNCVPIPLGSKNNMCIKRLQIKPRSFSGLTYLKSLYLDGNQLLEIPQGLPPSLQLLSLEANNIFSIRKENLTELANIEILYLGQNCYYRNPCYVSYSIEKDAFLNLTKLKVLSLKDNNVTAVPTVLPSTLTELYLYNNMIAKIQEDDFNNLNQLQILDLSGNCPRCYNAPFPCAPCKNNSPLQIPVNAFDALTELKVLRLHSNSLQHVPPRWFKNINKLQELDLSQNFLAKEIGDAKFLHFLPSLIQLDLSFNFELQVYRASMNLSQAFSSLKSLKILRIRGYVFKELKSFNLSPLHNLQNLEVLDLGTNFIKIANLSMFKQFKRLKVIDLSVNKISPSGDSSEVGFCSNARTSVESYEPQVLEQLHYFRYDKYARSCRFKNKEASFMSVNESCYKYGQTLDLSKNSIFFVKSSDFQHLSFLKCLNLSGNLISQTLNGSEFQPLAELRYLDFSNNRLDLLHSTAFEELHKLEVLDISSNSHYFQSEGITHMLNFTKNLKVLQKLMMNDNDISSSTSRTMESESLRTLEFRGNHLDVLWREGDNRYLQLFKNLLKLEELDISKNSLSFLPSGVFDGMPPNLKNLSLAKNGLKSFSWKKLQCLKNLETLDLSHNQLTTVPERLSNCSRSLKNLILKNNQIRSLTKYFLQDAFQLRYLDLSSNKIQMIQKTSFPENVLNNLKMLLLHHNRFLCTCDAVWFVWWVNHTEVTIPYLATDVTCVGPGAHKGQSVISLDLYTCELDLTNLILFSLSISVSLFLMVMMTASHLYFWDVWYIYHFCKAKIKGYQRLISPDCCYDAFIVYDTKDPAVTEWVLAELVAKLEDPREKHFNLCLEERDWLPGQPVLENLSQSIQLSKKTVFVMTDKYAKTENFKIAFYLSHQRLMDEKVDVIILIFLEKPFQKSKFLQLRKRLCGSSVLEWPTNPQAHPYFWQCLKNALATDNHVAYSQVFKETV

[4] = HEK-Blue cells overexpressing human TLR9, ODN2006 5 nM stimulation, SEAP reporter
[5] = HEK-Blue cells overexpressing human TLR8, R848 15.9 μM stimulation, SEAP reporter
[6] = HEK-Blue cells overexpressing human TLR7, gardiquimod 7.5 μM stimulation, SEAP reporter
[7] = HEK-Blue cells overexpressing human TLR9, SEAP reporter, ODN2006 5 nM
[8] = HEK-Blue cells overexpressing human TLR8, SEAP reporter, R848 15.9 μM
[9] = HEK-Blue cells overexpressing human TLR7, SEAP reporter, gardiquimod 7.5 μM
[10] = HEK-Blue human TLR9 cells, ODN2006 5 nM
[11] = HEK-Blue human TLR8 cells, R848 15.9 μM
[12] = HEK-Blue human TLR7 cells, gardiquimod 7.5 μM

Row | Structure (SMILES) | IC50 [1, 4] | IC50 [2, 5] | IC50 [3, 6] | IC50 [1, 7] | IC50 [2, 8] | IC50 [3, 9] | further results
1 | Cc1c(-c2[nH]c3ccc(C4CCC(N(C)C)CC4)nc3c2C(C)C)cn2ncnc2c1C (stereo not drawn) [Example 356] | 2.87 µM | 0.0051 µM | 0.0028 µM |  |  |  | 
2 | COc1cc(-c2[nH]c3ccc(N4CC(NCC5(C)COC5)C4)nc3c2C(C)C)cn2ncnc12 [Example 30] | 22.6 µM | 0.043 µM | 0.07 µM |  |  |  | 
3 | Cc1c(-c2[nH]c3ccc(N4[C@@H]5CC[C@H]4CN(C(=O)CN(C)C(C)C)C5)nc3c2C(C)C)cn2ncnc2c1C [Example 923] |  |  |  |  |  |  | IC50 [1, 10]: 6.56 µM; IC50 [2, 11]: 0.0036 µM; IC50 [3, 12]: 0.0012 µM
4 | Cc1c(-c2[nH]c3ccc(C4CCC(N5CCS(=O)(=O)CC5)CC4)nc3c2C(C)C)cn2ncnc2c1C (stereo not drawn) [Example 383] | > 50 µM | 0.167 µM | 0.033 µM |  |  |  | 
5 | CC(C)c1c(-c2cn(C)c3ncccc23)[nH]c2ccc(C3CCC(NCC(=O)N(C)C)CC3)nc12 (stereo not drawn) [Example 183] | 1.03 µM | 0.015 µM | 0.0056 µM |  |  |  | 
6 | CCN(CC(=O)N1C[C@H](C)N(c2ccc3[nH]c(-c4cn5ncnc5c(C)c4C)c(C(C)C)c3n2)C[C@H]1C)C(C)C [Example 912] |  |  |  |  |  |  | IC50 [1, 10]: 9.33 µM; IC50 [2, 11]: 0.0022 µM; IC50 [3, 12]: 0.00098 µM
7 | Cc1c(-c2[nH]c3ccc(N4CCN(C(=O)CN5CC6(COC6)C5)C[C@@H]4C)nc3c2C(C)C)cn2ncnc2c1C [Example 901] |  |  |  |  |  |  | IC50 [1, 10]: 13.3 µM; IC50 [2, 11]: 0.00015 µM; IC50 [3, 12]: 0.00072 µM
8 | Cc1c(-c2[nH]c3ccc(N4CCN(C(=O)CN5CCCC5)C[C@H]4C)nc3c2C(C)C)cn2ncnc2c1C [Example 835] |  |  |  |  |  |  | IC50 [1, 10]: 5.56 µM; IC50 [2, 11]: 0.0041 µM; IC50 [3, 12]: 0.0007 µM
9 | Cc1ncc(CN(C)C2CCC(c3ccc4[nH]c(-c5cn6ncnc6c(C)c5C)c(C(C)C)c4n3)CC2)cn1 (stereo not drawn) [Example 402] |  |  |  | 5.15 µM | 0.043 µM | 0.031 µM | 
10 | Cc1c(-c2[nH]c3ccc(N4CCN(CCC(N)=O)CC4)nc3c2C(C)C)cn2ncnc2c1C [Example 149] | 19.5 µM | 0.0004 µM | 0.0093 µM |  |  |  | 
11 | Cc1cc(-c2[nH]c3ccc(C4CCC(NC5COC5)CC4)nc3c2C(C)C)cn2ncnc12 (stereo not drawn) [Example 284] | 4.04 µM | 0.015 µM | 0.003 µM |  |  |  | 
12 | COc1cc(-c2[nH]c3ccc(C4CCC(N5CCC[C@H]5CO)CC4)nc3c2C(C)C)cn2ncnc12 (stereo partly drawn) [Example 197] | 0.134 µM | 0.0017 µM | 0.00034 µM |  |  |  | 
13 | CNC(=O)CN(C1CCC(c2ccc3[nH]c(-c4cn5ncnc5c(C)c4C)c(C(C)C)c3n2)CC1)C1COC1 (stereo not drawn) [Example 449] |  |  |  | 18 µM | 0.165 µM | 0.323 µM | 

The next lines start with results.

Row | IC50 [1, 4] | IC50 [2, 5] | IC50 [3, 6] | IC50 [1, 7] | IC50 [2, 8] | IC50 [3, 9] | Structure (SMILES) | further results
14 |  |  |  | 2.06 µM | 0.0019 µM | 0.00062 µM | CNC(=O)CNC1CCC(c2ccc3[nH]c(-c4cc(OC)c5ncnn5c4)c(C(C)C)c3n2)C1 (stereo not drawn) [Example 725] | 
15 |  |  |  | 0.949 µM | 0.0031 µM | 0.00081 µM | COc1cc(-c2[nH]c3ccc(OCC4CCN(C(C)C)CC4)nc3c2C(C)C)cn2ncnc12 [Example 598, 6-(3-isopropyl-5-((1-isopropylpiperidin-4-yl)methoxy)-1H-pyrrolo[3,2-b]pyridin-2-yl)-8-methoxy-[1,2,4]triazolo[1,5-a]pyridine] | 
16 |  |  |  | 2.07 µM | 0.04 µM | 0.0021 µM | COc1cc(-c2[nH]c3ccc(C4CNC4)nc3c2C(C)C)cn2ncnc12 [Example 648] | 
17 |  |  |  | 1.84 µM | 0.0086 µM | 0.00046 µM | Cc1cc(-c2[nH]c3cc(F)c(C4CCN(C(=O)CN(C)C)CC4)nc3c2C(C)C)cn2ncnc12 [Example 585] | 
18 |  |  |  | 4.24 µM | 0.199 µM | 0.104 µM | Cc1cc(-c2[nH]c3ccc(CCN4CCCCC4)nc3c2C(C)C)cn2ncnc12 [Example 681] | 
19 |  |  |  | 3.28 µM | 0.01 µM | 0.0062 µM | Cc1c(-c2[nH]c3ccc(C4CNC4)nc3c2C(C)C)cn2ncnc2c1C [Example 649, 6-(5-(azetidin-3-yl)-3-isopropyl-1H-pyrrolo[3,2-b]pyridin-2-yl)-7,8-dimethyl-[1,2,4]triazolo[1,5-a]pyridine] | 
